Experiments:
KRAS(G12D)/SOS1 = target: T1, KRAS(G12D)/SOS1 (Homo sapiens, UniProt P01116, G12D); test: KRAS(G12D)/SOS1 homogeneous time-resolved fluorescence (HTRF) assay; format: binding; conditions: absence of GTP; 4° C., 3 hr
T1 construct: purchased Cisbio 63ADK000CB17PEH
Experimental: Binding of test compounds to KRAS(G12D) target protein, which in turn blocks KRAS(G12D) interaction with the SOS1 protein, was measured in the absences of GTP by homogeneous time-resolved fluorescence using the KRAS-G12D/SOS1 Binding Assay Kit (Cisbio, 63ADK000CB17PEH), following the manufacturer's instructions, except as noted. 3-fold serial dilutions of each test compound were prepared ranging from 20 µM to 1.02 nM. The test compound was mixed and incubated with reaction components, incubated in a sealed plate at 4° C. for 3 hr and fluorescence was measured using a PerkinElmer Envision plate reader. The KRAS(G12D)-SOS1 IC50 values (the concentration of 50% of the maximal inhibition) were calculated using GraphPad Prism 7 software.

[1] = system: AGS gastric carcinoma cells [heterozygous G12D]; test: Cancer cell line proliferation (CellTiter-Glo), AGS; format: cell-based; conditions: Homo sapiens, 72 hr treatment, read-out: AGS CTG (EC50)
Experimental: (§1) The following cancer cell lines were employed: AGS gastric carcinoma [heterozygous G12D](ATCC, CRL-1739); A-427 lung carcinoma [heterozygous G12D](ATCC, HTB-53); ASPC1 pancreatic adenocarcinoma [homozygous G12D](ATCC, CRL-1682) and SW1990 pancreatic adenocarcinoma [homozygous G12D](ATCC CRL-2172). Cell lines were cultured essentially according to ATCC recommendations.
(§2) AGS, A-427, ASPC1, SW1990, and GP2D cells were plated in 96-well tissue culture plates at 4,000 cells/well and incubated at 37° C./5% CO2 for 72 hr in 100 μl of media. 3-fold serial dilutions of each test compound were prepared ranging from 20 μM to 1.02 nM. Each cell line was then treated with test compounds at various concentrations with a final concentration of 0.5% DMSO/well, and then incubated at 37° C./5% CO2 for 72 hr. 100 µl of CellTiter-Glo® Reagent (Promega Corporation, Madison, WI) was added to each well and processed according manufacturer's protocol. Results were analyzed and EC50 values were calculated in GraphPad 7 software.

[2] = system: A-427 lung carcinoma cells [heterozygous G12D]; test: Cancer cell line proliferation (CellTiter-Glo), A-427; format: cell-based; conditions: Homo sapiens, A-427 cells, 72 hr treatment, read-out: A427 CTG (EC50)
Experimental: as §1, §2

T1 sequence (P01116 1-188 isoform P01116-2 G12D): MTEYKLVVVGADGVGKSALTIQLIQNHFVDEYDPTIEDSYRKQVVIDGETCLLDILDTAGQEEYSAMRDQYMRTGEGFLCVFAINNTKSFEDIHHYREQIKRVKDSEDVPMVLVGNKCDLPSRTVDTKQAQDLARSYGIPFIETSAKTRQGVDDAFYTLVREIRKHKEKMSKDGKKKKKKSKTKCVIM

Compound	IC50 (KRAS(G12D)/SOS1)	EC50 [1]	EC50 [2]
C#Cc1cccc2cccc(-c3ncc4c(N5CC6CCC(C5)N6)nc(OCC5(CN6CCN(C(=O)C7CCN(Cc8ccc9c(c8)CN(C(=O)c8cc(C(C)C)c(O)cc8O)C9)CC7)CC6)CC5)nc4c3F)c12 [Compound 46]	< 100 nM	–	–
CCNC(=O)c1nnc(-c2cc(C(C)C)c(O)cc2O)n1-c1ccc(CN2CCC(C(=O)N(C)[C@H]3CN4CCC[C@@]4(COc4nc(N5CC6CCC(C5)N6)c5cnc(-c6cc(O)cc7ccccc67)c(F)c5n4)C3)CC2)cc1 [Compound 47]	< 100 nM	100 to 1000 nM	–
CCNC(=O)c1nnc(-c2cc(C(C)C)c(O)cc2O)n1-c1ccc(CN2CCC(C(=O)N(C)[C@H]3CN4CCC[C@]4(COc4nc(N5CC6CCC(C5)N6)c5cnc(-c6cc(O)cc7ccccc67)c(F)c5n4)C3)CC2)cc1 [Compound 48]	–	100 to 1000 nM	–
Cc1cccc2cccc(-c3ncc4c(N5CC6CCC(C5)N6)nc(OC[C@@H]5CC[C@H](CN6CCN(Cc7ccc8c(c7)CN(C(=O)c7cc(C(C)C)c(O)cc7O)C8)CC6)N5C)nc4c3F)c12 [Compound 71]	100 to 1000 nM	100 to 1000 nM	100 to 1000 nM
CCNC(=O)c1nnc(-c2cc(C(C)C)c(O)cc2O)n1-c1ccc(CN2CCN(C[C@H]3CC[C@@H](COc4nc(N5CC6CCC(C5)N6)c5cnc(-c6cccc7cccc(C)c67)c(F)c5n4)N3C)CC2)cc1 [Compound 72]	100 to 1000 nM	< 100 nM	< 100 nM
CCc1cc(-c2nnc(C(=O)NCC(F)(F)F)n2-c2ccc(CN3CCN(C[C@H]4CC[C@@H](COc5nc(N6CC7CCC(C6)N7)c6cnc(-c7cc(C)cc8ccccc78)c(F)c6n5)N4C)CC3)cc2)c(O)cc1O [Compound 73]	< 100 nM	100 to 1000 nM	100 to 1000 nM
CC(C)c1cc(C(=O)N2Cc3ccc(CN4CCN([C@H]5C[C@@H](COc6nc(N7CC8CNC(C8)C7)c7cnc(-c8cc(O)cc9ccccc89)c(F)c7n6)N(C)C5)CC4)cc3C2)c(O)cc1O (stereo partly shown) [Compound 74]	> 1000 nM	100 to 1000 nM	100 to 1000 nM
C#Cc1cccc2cccc(-c3ncc4c(N5CC6CCC(C5)N6)nc(OCCN5CCN(CCN(CC)C(=O)c6cc(C(C)C)c(O)cc6O)CC5)nc4c3F)c12 [Compound 75]	100 to 1000 nM	> 1000 nM	> 1000 nM
CC(C)c1cc(C(=O)N2Cc3ccc(CN4CCN(C[C@H]5CC[C@@H](COc6nc(N7CC8CCC(C7)N8)c7cnc(-c8cccc9cccc(F)c89)c(F)c7n6)N5C)CC4)cc3C2)c(O)cc1O [Compound 76]	100 to 1000 nM	100 to 1000 nM	100 to 1000 nM
CCNC(=O)c1nnc(-c2cc(C(C)C)c(O)cc2O)n1-c1ccc(CN2CCN([C@H]3C[C@@H](COc4nc(N5CC6CCC(C5)N6)c5cnc(-c6cccc7cccc(F)c67)c(F)c5n4)N(C)C3)CC2)cc1 [Compound 77]	100 to 1000 nM	< 100 nM	100 to 1000 nM
Cc1c(F)cccc1-c1ncc2c(N3CC4CCC(C3)N4)nc(OC[C@@H]3C[C@H](N4CCN(Cc5ccc(-n6c(C(=O)NC(C)C(F)(F)F)nnc6-c6cc(C(C)C)c(O)cc6O)cc5)CC4)CN3C)nc2c1F (stereo partly shown) [Compound 78]	> 1000 nM	100 to 1000 nM	100 to 1000 nM
Cc1c(F)cccc1-c1ncc2c(N3CC4CCC(C3)N4)nc(OC[C@@H]3C[C@H](N4CCN(C(=O)C5CCN(Cc6ccc7c(c6)CN(C(=O)c6cc(C(C)C)c(O)cc6O)C7)CC5)CC4)CN3C)nc2c1F [Compound 84]	–	100 to 1000 nM	100 to 1000 nM
CC(C)c1cc(C(=O)N2Cc3ccc(CN4CCN(C[C@H]5C[C@@H](COc6nc(N7CC8CCC(C7)N8)c7cnc(-c8cc(O)cc9ccccc89)c(F)c7n6)N(C)C5)CC4)cc3C2)c(O)cc1O [Compound 90]	–	100 to 1000 nM	100 to 1000 nM
CC(C)c1cc(-c2nnc(C(=O)NC(C)C(F)(F)F)n2-c2ccc(CN3CCN([C@H]4C[C@@H](COc5nc(N6CC7CCC(C6)N7)c6cnc(-c7ccccc7C(F)(F)F)c(F)c6n5)N(C)C4)CC3)cc2)c(O)cc1O (stereo partly shown) [Compound 110]	–	100 to 1000 nM	100 to 1000 nM
CCc1cc(-c2nnc(C(=O)NCC(F)(F)F)n2-c2ccc(CN3CCN([C@H]4C[C@@H](COc5nc(N6CC7CCC(C6)N7)c6cnc(-c7ccccc7C(F)(F)F)c(F)c6n5)N(C)C4)CC3)cc2)c(O)cc1O [Compound 111]	–	100 to 1000 nM	100 to 1000 nM
CC(C)c1cc(C(=O)N2Cc3ccc(CN4CCC(C(=O)N5CCN(C[C@H]6C[C@@H](COc7nc(N8CC9CCC(C8)N9)c8cnc(-c9cc(O)cc%10ccccc9%10)c(F)c8n7)N(C)C6)CC5)CC4)cc3C2)c(O)cc1O [Compound 112]	–	> 1000 nM	> 1000 nM

Compound	IC50 (KRAS(G12D)/SOS1)	EC50 [1]	EC50 [2]
C#Cc1cccc2cc(O)cc(-c3ncc4c(N5CC6CCC(C5)N6)nc(OC[C@@H]5C[C@H](CN6CCN(Cc7ccc8c(c7)CN(C(=O)c7cc(C(C)C)c(O)cc7O)C8)CC6)CN5C)nc4c3F)c12 [Compound 113]	–	100 to 1000 nM	100 to 1000 nM
C#Cc1cccc2cc(O)cc(-c3ncc4c(N5CC6CCC(C5)N6)nc(OC[C@@H]5C[C@H](CN6CCN(Cc7ccc(-n8c(C(=O)NCC)nnc8-c8cc(C(C)C)c(O)cc8O)cc7)CC6)CN5C)nc4c3F)c12 [Compound 114]	–	100 to 1000 nM	100 to 1000 nM
C#Cc1cccc2cc(O)cc(-c3ncc4c(N5CC6CCC(C5)N6)nc(OC[C@@H]5C[C@H](CN6CCN(Cc7ccc(-n8c(C(=O)NC(C)C(F)(F)F)nnc8-c8cc(C(C)C)c(O)cc8O)cc7)CC6)CN5C)nc4c3F)c12 (stereo partly shown) [Compound 115]	–	100 to 1000 nM	100 to 1000 nM
C#Cc1cccc2cc(O)cc(-c3ncc4c(N5CC6CCC(C5)N6)nc(OC[C@@H]5C[C@H](CN6CCN(Cc7ccc(-n8c(C(=O)NCC(F)(F)F)nnc8-c8cc(CC)c(O)cc8O)cc7)CC6)CN5C)nc4c3F)c12 [Compound 116]	–	100 to 1000 nM	> 1000 nM
C#Cc1c(F)ccc2cc(O)cc(-c3ncc4c(N5CC6CCC(C5)N6)nc(OCC5(CN6CCC(N7CCN(Cc8ccc9c(c8)CN(C(=O)c8cc(C(C)C)c(OC)cc8OC)C9)CC7)CC6)CC5)nc4c3F)c12 [Compound 196]	–	< 100 nM	–
C#Cc1c(F)ccc2cc(O)cc(-c3ncc4c(N5CC6CCC(C5)N6)nc(OC[C@H]5CCCN5Cc5ccc(-n6c(C(=O)NC(C)C(F)(F)F)nnc6-c6cc(C(C)C)c(O)cc6O)cc5)nc4c3F)c12 (stereo partly shown) [Compound 206]	–	100 to 1000 nM	–
C#Cc1c(F)ccc2cc(O)cc(-c3ncc4c(N5CC6CNC(C6)C5)nc(OCC5(CN6CCC(N7CCN(Cc8ccc9c(c8)CN(C(=O)c8cc(C(C)C)c(O)cc8O)C9)CC7)CC6)CC5)nc4c3F)c12 (stereo not shown) [Compound 207]	–	100 to 1000 nM	–
C#Cc1c(F)ccc2cc(O)cc(-c3ncc4c(N5CC6CCC(C5)N6CC#N)nc(OCC5(CN6CCC(N7CCN(Cc8ccc9c(c8)CN(C(=O)c8cc(C(C)C)c(O)cc8O)C9)CC7)CC6)CC5)nc4c3F)c12 [Compound 208]	–	< 100 nM	–
C#Cc1c(F)ccc2cc(O)cc(-c3ncc4c(N5CC6CCC(C5)N6)nc(OCC5(CN6CCC(N7CCN(Cc8cc9c(cc8F)CN(C(=O)c8cc(C(C)C)c(O)cc8O)C9)CC7)CC6)CC5)nc4c3F)c12 [Compound 209]	–	< 100 nM	–
C#Cc1c(F)ccc2cc(O)cc(-c3nc(OC)c4c(N5CC6CCC(C5)N6)nc(OC5CN(CC6(F)CN(Cc7ccc8c(c7)CN(C(=O)c7cc(C(C)C)c(O)cc7O)C8)C6)C5)nc4c3F)c12 [Compound 210]	–	100 to 1000 nM	–
C#Cc1c(F)ccc2cc(O)cc(-c3ncc4c(N5CC6CCC(C5)N6)nc(OCC5(CN6CCN(CC#Cc7cn(Cc8ncc(C)c(OC)c8C)c8nc(N)nc(Cl)c78)CC6)CC5)nc4c3F)c12 [Compound 211]	–	< 100 nM	–
C#Cc1c(F)ccc2cc(O)cc(-c3ncc4c(N5CC6CCC(C5)N6)nc(OCC5(CN6CC(C7CN(Cc8ccc9c(c8)CN(C(=O)c8cc(C(C)C)c(O)cc8O)C9)C7)C6)CC5)nc4c3F)c12 [Compound 213]	–	< 100 nM	–
C#Cc1cccc2cc(O)cc(-c3ncc4c(N5CC6CCC(C5)N6)nc(OCC5(CN6CCC(N7CCN(Cc8ccc9c(c8)CN(C(=O)c8cc(C(C)C)c(O)cc8O)C9)CC7)CC6)CC5)nc4c3F)c12 [Compound 214]	–	< 100 nM	–
C#Cc1c(F)ccc2cc(O)cc(-c3ncc4c(N5CC6CCC(C5)N6)nc(OCC5(CN6CC(C7CCN(Cc8ccc9c(c8)CN(C(=O)c8cc(C(C)C)c(O)cc8O)C9)CC7)C6)CC5)nc4c3F)c12 [Compound 215]	–	< 100 nM	–
C#Cc1c(F)ccc2cc(O)cc(-c3ncc4c(N5CC6CCC(C5)N6)nc(OCC5(CN6CCC(N7CCC(Oc8ccc9c(n8)CN(C(=O)c8cc(C(C)C)c(O)cc8O)C9)CC7)CC6)CC5)nc4c3F)c12 [Compound 216]	–	< 100 nM	–
C#Cc1c(F)ccc2cc(O)cc(-c3ncc4c(N5CC6CCC(C5)N6)nc(OCC5(CN6CC(CN(C)CCOc7ccc8c(c7)CN(C(=O)c7cc(C(C)C)c(O)cc7O)C8)C6)CC5)nc4c3F)c12 [Compound 218]	–	100 to 1000 nM	–
